Here are results for one compound from publication PMC4030970, “Structural Evidence for the Tetrameric Assembly of Chemokine CCL11 and the Glycosaminoglycan Arixtra™” (Biomolecules, 2013).

In assay [1] the target is T1, CCL2 (Homo sapiens, UniProt P13500).
T1 construct: construct and preparation not described in the main text; monomer-dimer, tetramer with saturating GAG
Description: isothermal titration calorimetry. The format is binding. On the technique in general: ITC needs no label: the signal is the heat of the interaction.

Assay [2] deals with T2, CCL11 (Eotaxin-1) (Homo sapiens, UniProt P51671).
T2 construct: mature wild-type CCL11; monomer mass about 8360 Da from m/z; monomer-dimer-tetramer mixture
The assay can be described thus: isothermal titration calorimetry. The format is binding.

T1 sequence (P13500 24-99): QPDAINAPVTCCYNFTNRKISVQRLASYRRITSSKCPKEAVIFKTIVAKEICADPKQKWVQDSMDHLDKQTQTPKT
T2 sequence (P51671 24-97): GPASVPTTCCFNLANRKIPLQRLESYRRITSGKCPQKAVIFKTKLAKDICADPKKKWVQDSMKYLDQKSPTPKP

For the compound `CO[C@H]1O[C@H](COS(=O)(=O)O)[C@@H](O[C@@H]2O[C@@H](C(=O)O)[C@@H](O[C@H]3O[C@H](COS(=O)(=O)O)[C@@H](O[C@@H]4O[C@H](C(=O)O)[C@@H](O[C@H]5O[C@H](COS(=O)(=O)O)[C@@H](O)[C@H](O)[C@H]5NS(=O)(=O)O)[C@H](O)[C@H]4O)[C@H](OS(=O)(=O)O)[C@H]3NS(=O)(=O)O)[C@H](O)[C@H]2OS(=O)(=O)O)[C@H](O)[C@H]1NS(=O)(=O)O` [Arixtra], the Kd is 7.98 ± 0.77 µM in assay [1] and 2.71 ± 0.284 µM in assay [2].

As a reminder, the Kd is the constant that tells how readily two partners part at equilibrium.
